Source: US20180021361A1, “COMBINATION DRUG TREATMENT FOR HEPATITIS C INFECTION” (JANSSEN PHARMACEUTICALS, INC., priority 2016, published 2018)
Entries after “also recorded” stand apart in the source; their conditions may differ.

What was measured:
OATP1B3 = target: T1, OATP1B3 (Homo sapiens, UniProt Q9NPD5); conditions: uptake transporter; cited from earlier work
T1 sequence (Q9NPD5 1-702): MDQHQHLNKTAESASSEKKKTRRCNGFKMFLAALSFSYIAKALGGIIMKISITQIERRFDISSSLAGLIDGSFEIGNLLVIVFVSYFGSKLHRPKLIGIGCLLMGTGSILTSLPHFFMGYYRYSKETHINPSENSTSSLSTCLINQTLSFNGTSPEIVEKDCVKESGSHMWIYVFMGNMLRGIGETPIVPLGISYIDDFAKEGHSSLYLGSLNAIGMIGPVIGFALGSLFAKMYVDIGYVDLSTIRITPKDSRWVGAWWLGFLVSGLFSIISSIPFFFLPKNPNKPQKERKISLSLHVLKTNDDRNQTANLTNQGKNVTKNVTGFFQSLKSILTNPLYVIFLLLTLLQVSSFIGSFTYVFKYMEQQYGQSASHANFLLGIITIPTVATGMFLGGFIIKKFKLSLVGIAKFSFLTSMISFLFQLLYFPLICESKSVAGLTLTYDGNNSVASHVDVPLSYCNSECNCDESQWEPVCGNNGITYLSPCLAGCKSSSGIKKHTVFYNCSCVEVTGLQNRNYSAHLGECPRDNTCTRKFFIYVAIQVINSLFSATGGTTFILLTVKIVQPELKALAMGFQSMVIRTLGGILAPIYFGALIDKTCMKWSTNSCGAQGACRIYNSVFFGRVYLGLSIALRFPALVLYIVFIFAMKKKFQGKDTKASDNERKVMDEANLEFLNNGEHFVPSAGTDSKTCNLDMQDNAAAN

[1] = Phase-1 drug-drug interaction study, plasma PK in healthy volunteers
Procedure: A drug-drug interaction study (DDI) study is a study designed to investigate whether a drug alters the pharmacokinetics of another drug or drugs or their metabolites.
Compound (III) Subjects received 800 mg of Compound (III) once daily from Days 1-3, Days 11-13, and Days 21-23. PK blood samples for determination of Compound (III) and metabolite concentrations were collected in reference to the Day 3, Day 13, and Day 23 doses.
Simeprevir—Subjects received 150 mg of Simeprevir (SMV) once daily from Days 4-23. PK blood samples for determination of SMV concentrations were collected in reference to the Day 10, Day 13, Day 20, and Day 23 doses.
Odalasvir—Subjects received a loading dose of 150 mg on Day 14, and 50 mg of Odalasvir once daily from Days 15-23. PK blood samples for determination of Odalasvir concentrations were collected in reference to the Day 20 and Day 23 doses.
Compound (III)—Subjects received 800 mg of Compound (III) once daily from Days 1-3, Days 11-13 and Days 21-23. PK blood samples for determination of Compound (III) and metabolite concentrations were collected in reference to the Day 3, Day 13, and Day 23 doses.
Simeprevir—Subjects receive 150 mg of SMV once daily from Days 4-23. PK blood samples for determination of SMV concentrations were collected in reference to the Day 20 and Day 23 doses.
Odalasvir—Subjects receive a loading dose of 150 mg on Day 4, and 50 mg of Odalasvir once daily from Days 5-23. PK blood samples for determination of Odalasvir concentrations were collected in reference to the Day 10, Day 13, Day 20, and Day 23 doses.
A primary objective was to evaluate the effect of multiple oral doses of Odalasvir (alone), Simeprevir (alone), and Odalasvir and Simeprevir on the multiple oral dose PK of Compound (III) (and certain metabolites thereof, such as the major metabolites in systemic circulation) in healthy volunteers. Other objectives were to evaluate the safety and tolerability of multiple oral doses of Compound (III) when administered alone and in combination with single and multiple oral doses of Odalasvir and/or Simeprevir in healthy volunteers; to determine the potential effect of Compound of Compound (III) and/or Odalasvir on the steady-state PK of Simeprevir in healthy volunteers; to determine the potential effect of Compound of Compound (III) and/or Simeprevir on the steady state PK of Odalasvir in healthy volunteers.
Various other PK parameters were estimated including: […], t1/2, Tmax, Tlast, CL/F, Vz/F, and λz.
Odalasvir: 150 mg loading dose; 50 mg for the remainder of the study period.

OATP1B1 = target: T2, OATP1B1 (Homo sapiens, UniProt Q9Y6L6); conditions: uptake transporter; cited from earlier work
T2 sequence (Q9Y6L6 1-691): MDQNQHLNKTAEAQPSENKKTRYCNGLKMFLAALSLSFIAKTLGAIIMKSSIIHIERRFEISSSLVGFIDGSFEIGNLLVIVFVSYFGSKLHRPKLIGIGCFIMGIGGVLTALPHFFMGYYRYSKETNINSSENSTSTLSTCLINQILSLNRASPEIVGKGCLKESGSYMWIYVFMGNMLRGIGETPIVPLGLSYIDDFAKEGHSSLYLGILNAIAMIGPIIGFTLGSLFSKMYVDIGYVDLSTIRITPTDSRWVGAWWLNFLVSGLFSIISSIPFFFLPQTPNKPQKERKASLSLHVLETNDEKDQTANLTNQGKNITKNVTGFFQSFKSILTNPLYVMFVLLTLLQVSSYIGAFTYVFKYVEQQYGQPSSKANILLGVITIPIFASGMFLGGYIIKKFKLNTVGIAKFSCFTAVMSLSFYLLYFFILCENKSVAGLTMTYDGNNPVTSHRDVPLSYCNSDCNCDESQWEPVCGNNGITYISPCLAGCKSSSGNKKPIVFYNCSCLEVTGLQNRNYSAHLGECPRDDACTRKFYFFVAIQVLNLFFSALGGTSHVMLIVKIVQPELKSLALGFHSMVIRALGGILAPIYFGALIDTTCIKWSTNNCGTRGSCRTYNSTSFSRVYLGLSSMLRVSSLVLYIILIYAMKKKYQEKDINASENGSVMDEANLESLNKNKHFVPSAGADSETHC

SMILES | in vitro inhibition of OATP1B3 (OATP1B3) | exposure increase caused by Odalasvir ([1]; DDI study results) [×] | exposure increase caused by SMV ([1]; DDI study results) [×] | increase of exposure with the combination of the three drugs ([1]; both, human, in vivo) | bioavailability of Compound (III) when SMV and ODV are co-administered, compared to Compound (III) alone ([1]; human subjects) | in vitro inhibition of OATP1B1 (OATP1B1) | exposure increase, effect of the three Compounds ([1]; DDI study results) [×] | increase of exposure with the combination of the three drugs ([1]; human in vivo study) [times] | effect of Compound (III) on exposure / bioavailability ([1]; human subjects)
CC(C)OC(=O)C(C)N[P@](=O)(OC[C@@]1(F)O[C@@H](n2ccc(=O)[nH]c2=O)[C@](C)(O)[C@@H]1O)Oc1ccccc1 (stereo in doubt) [Compound (III)] | no in vitro inhibition | 4 | 3 | 7-8 times | approximately 8 fold | no in vitro inhibition |  |  | 
COC(=O)N[C@H](C(=O)N1[C@H](c2nc3cc(-c4cc5ccc4CCc4ccc(c(-c6ccc7[nH]c([C@@H]8C[C@@H]9CCCC[C@@H]9N8C(=O)[C@@H](NC(=O)OC)C(C)C)nc7c6)c4)CC5)ccc3[nH]2)C[C@@H]2CCCC[C@@H]21)C(C)C [ODV, methyl [(2S)-1-[(2S,3aS,7aS)-2-[6-[11-[2-[(2S,3aS,7aS)-1-[(2S)-2-[(methoxycarbonyl)amino]-3-methylbutanoyl]octahydro-1H-indol-2-yl]-1H-benzimidazol-6-yl]tricyclo[8.2.2.2^4,7]hexadeca-1(12),4,6,10,13,15-hexaen-5-yl]-1H-benzimidazol-2-yl]octahydro-1H-indol-1-yl]-3-methyl-1-oxobutan-2-yl]carbamate] | no inhibition |  | 1.6 |  |  | no inhibition | 1.5 | 1.5 | no apparent effect; also recorded: does not alter
